Values of other authors in patent publication US20080227813A1, “Pharmaceutical compositions and methods for treating diseases associated with neurodegeneration” (priority 2006, published 2008).

Test system: patients suffering from ALS
Conditions: riluzole alone, previous studies; cited from earlier work

Nc1nc2ccc(OC(F)(F)F)cc2s1 [riluzole, Riluzole]
effect on VC: failed to demonstrate any effect
